Measurements reported in US8440710B2, “HSL inhibitors useful in the treatment of diabetes” (Hoffmann-La Roche Inc., priority 2009, dated 2013).

Biological target: T1, human HSL (Homo sapiens, UniProt Q05469)
T1 construct: generate a full length human HSL ORF with a 3′-His6 tag; made in house; host or cells: High 5 insect cells (baculovirus, pFast-BAC)
T1 sequence (Q05469 1-1076): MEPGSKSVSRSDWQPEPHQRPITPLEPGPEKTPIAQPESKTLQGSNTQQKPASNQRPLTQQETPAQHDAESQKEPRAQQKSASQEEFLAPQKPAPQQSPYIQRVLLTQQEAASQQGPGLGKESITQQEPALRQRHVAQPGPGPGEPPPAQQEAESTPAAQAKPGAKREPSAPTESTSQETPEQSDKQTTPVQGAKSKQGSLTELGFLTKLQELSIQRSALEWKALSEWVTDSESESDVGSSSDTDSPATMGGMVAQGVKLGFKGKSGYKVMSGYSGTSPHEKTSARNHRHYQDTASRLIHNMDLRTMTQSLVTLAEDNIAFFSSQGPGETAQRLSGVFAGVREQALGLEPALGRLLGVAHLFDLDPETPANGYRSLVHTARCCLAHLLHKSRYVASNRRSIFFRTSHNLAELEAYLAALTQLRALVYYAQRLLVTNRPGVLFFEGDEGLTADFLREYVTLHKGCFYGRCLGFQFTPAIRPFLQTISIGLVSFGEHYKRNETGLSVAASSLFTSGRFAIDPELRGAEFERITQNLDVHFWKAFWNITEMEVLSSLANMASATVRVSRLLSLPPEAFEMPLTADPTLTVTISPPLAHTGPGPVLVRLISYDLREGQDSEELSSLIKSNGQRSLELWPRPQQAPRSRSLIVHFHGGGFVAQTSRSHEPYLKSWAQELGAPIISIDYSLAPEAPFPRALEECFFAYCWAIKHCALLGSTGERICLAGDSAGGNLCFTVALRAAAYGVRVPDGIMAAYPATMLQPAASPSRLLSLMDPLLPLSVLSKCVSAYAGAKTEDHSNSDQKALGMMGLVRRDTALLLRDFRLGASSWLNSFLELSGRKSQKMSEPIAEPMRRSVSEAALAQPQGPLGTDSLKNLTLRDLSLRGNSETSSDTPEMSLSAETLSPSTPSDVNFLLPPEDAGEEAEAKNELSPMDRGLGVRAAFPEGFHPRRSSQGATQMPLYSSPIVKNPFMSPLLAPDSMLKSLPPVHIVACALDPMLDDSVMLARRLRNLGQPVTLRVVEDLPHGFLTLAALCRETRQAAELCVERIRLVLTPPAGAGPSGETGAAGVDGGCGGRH
Test: Human Hormone-Sensitive Lipase (HSL) enzyme inhibition assay (colorimetric, DMPT substrate)
Assay type: biochemical
Details: human full length HSL-His6, 2,3-dimercapto-1-propanol tributyrate substrate, 37° C. 20 minutes, absorbance at 405 nm; read-out: HSL hum IC50
Method in brief: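 Full-length human HSL with C-terminal His6, expressed in baculovirus-infected High 5 cells and Ni-NTA purified, was added (15 ug/ml stock) to 1.5 mM DMPT in 100 mM MOPS pH 7.2, 0.2 mg/ml fatty acid-free BSA containing compound. After 20 min at 37 °C, DTNB with SDS/Triton X-100 was added; A405 read after 15 min at RT.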

Structure (SMILES) | IC50
C[C@H](Oc1ccc(N2CC[C@]3(CC[C@@](O)(C(F)(F)F)CC3)C2=O)cn1)C(F)(F)F [Example 173, (5α,8α)-8-Hydroxy-8-trifluoromethyl-2-[6-((S)-2,2,2-trifluoro-1-methyl-ethoxy)-pyridin-3-yl]-2-aza-spiro[4.5]decan-1-one] | 50 nM
C[C@@H](Oc1ccc(N2CC[C@]3(CC[C@@](O)(C(F)(F)F)CC3)C2=O)cn1)C(F)(F)F [Example 174, (5α,8α)-8-Hydroxy-8-trifluoromethyl-2-[6-((R)-2,2,2-trifluoro-1-methyl-ethoxy)-pyridin-3-yl]-2-aza-spiro[4.5]decan-1-one] | 60 nM
CC[C@]1(O)CC[C@]2(CCN(c3ccc(O[C@H](C)C(F)(F)F)nc3)C2=O)CC1 [Example 175, (5α,8α)-8-Ethyl-8-hydroxy-2-[6-((R)-2,2,2-trifluoro-1-methyl-ethoxy)-pyridin-3-yl]-2-aza-spiro[4.5]decan-1-one] | 40 nM
CCC[C@]1(O)CC[C@]2(CCN(c3ccc(O[C@H](C)C(F)(F)F)nc3)C2=O)CC1 [Example 176, (5α,8α)-8-Hydroxy-8-propyl-2-[6-((R)-2,2,2-trifluoro-1-methyl-ethoxy)-pyridin-3-yl]-2-aza-spiro[4.5]decan-1-one] | 20 nM
CC(Oc1ccc(N2CC[C@]3(CC[C@@](O)(C(F)(F)F)CC3)C2=O)cc1)C(F)(F)F (stereo partly drawn) [Example 177, (5α,8α)-8-Hydroxy-8-trifluoromethyl-2-[4-(2,2,2-trifluoro-1-methyl-ethoxy)-phenyl]-2-aza-spiro[4.5]decan-1-one] | 30 nM
C[C@H](Oc1ccc(N2CC[C@]3(CC[C@@](O)(C(F)(F)F)CC3)C2=O)cc1)C(F)(F)F [Example 177a, (5α,8α)-8-Hydroxy-8-trifluoromethyl-2-[4-((S)-2,2,2-trifluoro-1-methyl-ethoxy)-phenyl]-2-aza-spiro[4.5]decan-1-one] | 40 nM
C[C@@H](Oc1ccc(N2CC[C@]3(CC[C@@](O)(C(F)(F)F)CC3)C2=O)cc1)C(F)(F)F [Example 177b, (5α,8α)-8-Hydroxy-8-trifluoromethyl-2-[4-((R)-2,2,2-trifluoro-1-methyl-ethoxy)-phenyl]-2-aza-spiro[4.5]decan-1-one] | 40 nM
O=C1N(c2ccc(OCC(F)(F)F)nc2)CC[C@]12CC[C@@](O)(C(F)(F)F)CC2 [Example 178, (5α,8α)-8-Hydroxy-2-[6-(2,2,2-trifluoro-ethoxy)-pyridin-3-yl]-8-trifluoromethyl-2-aza-spiro[4.5]decan-1-one] | 150 nM
CCC[C@]1(O)CC[C@]2(CCN(c3ccc(OS(=O)(=O)C4CC4)cc3)C2=O)CC1 [Example 182, 4-((5α,8α)-8-hydroxy-1-oxo-8-propyl-2-aza-spiro[4.5]decan-2-yl)phenyl cyclopropanesulfonate] | 30 nM
CCC[C@]1(O)CC[C@@]2(CCN(c3ccc(OS(C)(=O)=O)cc3)C2=O)CC1 [Example 185, 4-((5α,8β))-8-hydroxy-1-oxo-8-propyl-2-aza-spiro[4.5]decan-2-yl)phenyl methanesulfonate] | 50 nM
CCC[C@]1(O)CC[C@]2(CCN(c3ccc(S(=O)(=O)CC)cc3)C2=O)CC1 [Example 187, (5α,8α)-2-(4-Ethanesulfonyl-phenyl)-8-hydroxy-8-propyl-2-aza-spiro[4.5]decan-1-one] | 650 nM
CCC[C@]1(O)CC[C@]2(CCN(Cc3ccc(OC(F)(F)F)cc3)C2=O)CC1 [Example 188, (5α,8α)-8-hydroxy-8-propyl-2-(4-(trifluoromethoxy)benzyl)-2-aza-spiro[4.5]decan-1-one] | 80 nM
O=C1N(c2ccc(OS(=O)(=O)C3CC3)cc2)CC[C@]12CC[C@@](O)(C(F)(F)F)CC2 [Example 189, 4-((5α,8α)-8-hydroxy-1-oxo-8-(trifluoromethyl)-2-aza-spiro[4.5]decan-2-yl)phenyl cyclopropanesulfonate] | 100 nM
CCCC[C@]1(O)CC[C@]2(CCN(c3ccc([C@@H](O)C(F)(F)F)cc3)C2=O)CC1 [Example 190, (5α,8α)-8-butyl-8-hydroxy-2-(4-((R)-2,2,2-trifluoro-1-hydroxyethyl)phenyl)-2-aza-spiro[4.5]decan-1-one] | 10 nM
CC(C)[C@]1(O)CC[C@]2(CCN(c3ccc(C(O)C(C)(F)F)cc3)C2=O)CC1 (stereo partly drawn) [Example 191, (5α,8α)-2-(4-(2,2-difluoro-1-hydroxypropyl)phenyl)-8-hydroxy-8-isopropyl-2-aza-spiro[4.5]decan-1-one] | 50 nM
CCC[C@]1(O)CC[C@]2(CCN(c3ccc(C(O)C(C)(F)F)cc3)C2=O)CC1 (stereo partly drawn) [Example 192, (5α,8α)-2-(4-(2,2-difluoro-1-hydroxypropyl)phenyl)-8-hydroxy-8-propyl-2-aza-spiro[4.5]decan-1-one] | 50 nM
CC(F)(F)C(O)c1ccc(N2CC[C@]3(CC[C@@](O)(CCC(F)(F)F)CC3)C2=O)cc1 (stereo partly drawn) [Example 193, (5α,8α)-2-(4-(2,2-difluoro-1-hydroxypropyl)phenyl)-8-hydroxy-8-(3,3,3-trifluoropropyl)-2-aza-spiro[4.5]decan-1-one] | 30 nM
O=C1N(c2ccc([C@@H](O)C(F)(F)F)cc2)CC[C@]12CC[C@@](O)(CCC(F)(F)F)CC2 [Example 194, (5α,8α)-8-hydroxy-2-(4-((R)-2,2,2-trifluoro-1-hydroxyethyl)phenyl)-8-(3,3,3-trifluoropropyl)-2-aza-spiro[4.5]decan-1-one] | 20 nM
CCC[C@]1(O)CC[C@]2(CCN(c3ccc(C(O)C(F)F)cc3)C2=O)CC1 (stereo partly drawn) [Example 195, (5α,8α)-2-(4-(2,2-difluoro-1-hydroxyethyl)phenyl)-8-hydroxy-8-propyl-2-aza-spiro[4.5]decan-1-one] | 110 nM

Other lines, results leading:

IC50 | Structure (SMILES)
30 nM | C[C@@H](Oc1ccc(N2CC[C@]3(CC[C@@](O)(C4CC4)CC3)C2=O)cn1)C(F)(F)F [Example 179, (5α,8α)-8-Cyclopropyl-8-hydroxy-2-[6-((R)-2,2,2-trifluoro-1-methyl-ethoxy)-pyridin-3-yl]-2-aza-spiro[4.5]decan-1-one]
30 nM | C[C@H](Oc1ccc(N2CC[C@]3(CC[C@@](O)(C4CC4)CC3)C2=O)cn1)C(F)(F)F [Example 180, (5α,8α)-8-Cyclopropyl-8-hydroxy-2-[6-((S)-2,2,2-trifluoro-1-methyl-ethoxy)-pyridin-3-yl]-2-aza-spiro[4.5]decan-1-one]
20 nM | CC(Oc1ccc(N2CC[C@]3(CC[C@@](O)(C4CC4)CC3)C2=O)cc1)C(F)(F)F (stereo partly drawn) [Example 181, (5α,8α)-8-Cyclopropyl-8-hydroxy-2-[4-(2,2,2-trifluoro-1-methyl-ethoxy)-phenyl]-2-aza-spiro[4.5]decan-1-one]
20 nM | C[C@@H](Oc1ccc(N2CC[C@]3(CC[C@@](O)(C4CC4)CC3)C2=O)cc1)C(F)(F)F [Example 181a, (5α,8α)-8-Cyclopropyl-8-hydroxy-2-[4-((R)-2,2,2-trifluoro-1-methyl-ethoxy)-phenyl]-2-aza-spiro[4.5]decan-1-one]
70 nM | CC[C@]1(O)CC[C@]2(CCN(c3ccc(OS(=O)(=O)C4CC4)cc3)C2=O)CC1 [Example 183, 4-((5α,8α)-8-ethyl-8-hydroxy-1-oxo-2-aza-spiro[4.5]decan-2-yl)phenyl cyclopropanesulfonate]
20 nM | CCC[C@]1(O)CC[C@]2(CCN(c3ccc(OC(C)C)cc3)C2=O)CC1 [Example 184, (5α,8α)-8-Hydroxy-2-(4-isopropoxyphenyl)-8-propyl-2-aza-spiro[4.5]decan-1-one]
20 nM | CC[C@]1(O)CC[C@]2(CCN(c3ccc(OC(C)C)cc3)C2=O)CC1 [Example 186, (5α,8α)-8-Ethyl-8-hydroxy-2-(4-isopropoxy-phenyl)-2-aza-spiro[4.5]decan-1-one]
10 nM | CC(C)Oc1ccc(N2CC[C@]3(CC[C@@](O)(C(C)C)CC3)C2=O)cc1 [Example 196, (5α,8α)-8-hydroxy-2-(4-isopropoxyphenyl)-8-isopropyl-2-aza-spiro[4.5]decan-1-one]
20 nM | CC(C)Oc1ccc(N2CC[C@]3(CC[C@@](O)(C4CC4)CC3)C2=O)cc1 [Example 197, (5α,8α)-8-cyclopropyl-8-hydroxy-2-(4-isopropoxyphenyl)-2-aza-spiro[4.5]decan-1-one]
